These results are taken from patent publication US20040102454A1, “Phenylahistin and the phenylahistin analogs, a new class of anti-tumor compounds” (priority 1998, published 2004).

Data set [1] concerns A-431 human pudendal epithelial squamous cancer cells. The experiment in a line: Cell proliferation inhibiting effect, MTT (Example 5). To be noted: A-431, 48-hours incubation. Type of data set: cell-based. How it is done: (§1) K-562, human chronic myelogenic leukemia cells were cultured in […] culture medium (containing 10% bovine fetus serum) and A-431 human pudendal epithelial squamous cancer cells were cultured in DMEM culture medium, containing 10% bovine fetus serum. To these a continuous dilution series of the (+)-phenylahistin obtained in EXAMPLE 1 was added. After 48-hours incubation, a MTT reagent was added to measure growth.

In data set [2] the test system is K-562, human chronic myelogenic leukemia cells. The data set is described as above. It is filed as cell-based. To be noted: K562, K-562, 48-hours incubation. How it is done:
as §1

Data set [3] concerns P388 murine leukemia cells. The experiment in a line: Cytotoxic effects of the phenylahistin enantiomers (Example 8). Type of data set: cell-based. To be noted: Mus musculus, (−) 92.2% e.e., (+) 97.8% e.e. The source says: The cytotoxic effects of the enantiomers of phenylahistin on P388 murine leukemia cells were examined. […] Judging from the content of (−)-phenylahistin in (+)-phenylahistin, (+)-phenylahistin was considered to have relatively low cytotoxicity to P388 cells.

Data set [4] concerns P388 cells. Kind of data set: P388 proliferation, Alamar Blue assay. Type of data set: cell-based, murine. To be noted: Mus musculus, P388. How it is done:
For this example, the Alamar Blue™ assay was performed as follows. Exponentially growing P388 cells were seeded into 96-well tissue culture plates (5×10^3 cells/100 μl/well) and cultured in RPMI 1640 medium supplemented with 10% fetal bovine serum for 16 h. Compounds (DMSO solution) were then added to each well at various concentrations, and the cells were cultured for an additional 48 h. Living cells were counted using Alamar Blue™ (BioSource International, Camarillo, Calif.), according to the method of Ahmed, S. A. et al., J. Immunol. Methods, 170, 211 (1994).
Background: Resazurin is reduced to fluorescent resorufin, in cell work by metabolically active cells.

Data set [5] concerns Microtubule protein from bovine brain. Kind of data set: Microtubule protein polymerization assay (turbidity). It is filed as biochemical. How it is done: Microtubule protein was prepared from bovine brain tissue by two cycles of assembly and disassembly according to the method of Tiwari, S. C. et al. Anal. Biochem, (1993), 215, 96-103. Tubulin was purified from microtubule protein by phosphocellulose chromatography see Algaier, J. et al. Biochim. Biophys. Acta, (1988), 954, 235-43, and tubulin purity was evaluated by polyacrylamide gel electrophoresis, as in Laemmli, U.K., Nature, (1970), […], 680-85. […] Protein concentrations were determined using the Coomassie® Protein Assay Reagent from Pierce (Rockford, Ill.).
Polymerization of microtubule protein was monitored by an increase in turbidity at 37° C. in microtubule assembly buffer containing 100 mM MES, 0.5 mM MgCl2, 1 mM EGTA and 1 mM GTP. See Johnson, K. A. et al., J. Mol. Biol., (1977), 117, 1-31. Polymerization of purified tubulin was measured using the same method except the microtubule assembly buffer contained 4 M glycerol. See Lee, J. C. et al., Biochemistry, (1975), 14, 5183-87. Microtubule protein and tubulin polymerization was initiated by a temperature shift from 0° C. to 37° C. and turbidity was measured on a DU-20 thermocontrolled spectrophotometer from Beckman (Fullerton, Calif.) at 360 nm. Drugs were dissolved in dimethyl sulfoxide (DMSO), which was used in all experiments at a final concentration of 2% (v/v).
For this example, the microtubule protein polymerization assay was performed as follows. Microtubule protein was prepared from bovine brain tissue by two cycles of assembly and disassembly. Polymerization of microtubule protein was monitored by an increase in turbidity at 37° C. in microtubule assembly buffer containing 100 mM MES, 0.5 mM MgCl2, 1 mM EGTA and 1 mM GTP. The polymerization of microtubule protein was initiated by a temperature shift from 0° C. to 37° C. Turbidity was measured on a thermo-controlled spectrophotometer (Beckman DU-20, Fullerton, Calif.) at 360 nm. Compounds were dissolved in DMSO, which was used in all experiments at a final concentration of 2% (v/v).

The subject of data set [6] is P388 cells. The experiment in a line: Cell cycle progression of P388, flow cytometer. Type of data set: cell-based, murine. To be noted: 1×10^−5 M, 8-hour incubation; 97.8% e.e. How it is done:
The effect of phenylahistin on the cell cycle progression of P388 cells was also investigated using a flow cytometer, as described in Krishan, A., J. Cell Biol. (1975) 66, 188-193. P388 cells in the log growth phase were seeded into flasks and cultured for 14 hours, and then various concentrations of phenylahistin were added to each flask. After an 8-hour incubation, the cells were harvested and fixed with 50% MeOH at −20° C. overnight. The cells were washed with 30% MeOH and then with 10 mM PBS, and treated with 50 :g/ml propidium iodide at 4° C. for 2 hours. DNA histograms were obtained using a flow cytometer (Cyto ACE-300:JASCO).
For orientation: A flow cytometer gives signals particle by particle.

The next data set relates to A-431 (damal). The experiment in a line: Antiproliferative activity, MTT assay (Table 7). Particulars: Homo sapiens, optical purity over 99.8%. Type of data set: cell-based. The procedure: (§2) In order to examine detailed biological activity, especially antitumor activity of both (+)- and (−)-phenylahistin, resolution of (+)- and (−)-phenylahistin using chiral HPLC was conducted. By repeating chiral separation twice or three times, each enantiomer with an optical purity over 99.8% was obtained, and each enantiomer was recrystallizes from ethanol-hexane mixture.
(§3) Antitumor activity of (+)- and (−)-phenylahistin was examined against seven human cancer cell lines including A431, WiDr, TE-671, Hela, MCF7, A-549 and K562 cells.
For orientation: Tetrazolium dyes change colour on reduction, which living cells bring about.

A further data set has as its system A549 (lung). The experiment in a line: Antiproliferative activity, MTT assay (Table 7). It is filed as cell-based. To be noted: Homo sapiens, optical purity over 99.8%. How it is done: as §2, §3
Another data set relates to Hela (ovary). Kind of data set: Antiproliferative activity, MTT assay (Table 7). It is filed as cell-based. Particulars: Homo sapiens, optical purity over 99.8%. How it is done:
as §2, §3

A further data set has as its system K562 (leukemia). The experiment in a line: Antiproliferative activity, MTT assay (Table 7). Type of data set: cell-based. To be noted: Homo sapiens, optical purity over 99.8%. How it is done:
as §2, §3

The subject of a further data set is MCF7 (breast). The experiment in a line: Antiproliferative activity, MTT assay (Table 7). Type of data set: cell-based. To be noted: Homo sapiens, optical purity over 99.8%. How it is done:
as §2, §3

In the next data set the test system is TE-671 (CNS). Kind of data set: Antiproliferative activity, MTT assay (Table 7). Type of data set: cell-based. Particulars: Homo sapiens, TE-671, TE-671 (CNS), optical purity over 99.8%. The procedure: as §2, §3
The test system of another data set is WiDr (colon). The experiment in a line: Antiproliferative activity, MTT assay (Table 7). Type of data set: cell-based. Particulars: Homo sapiens, optical purity over 99.8%. The procedure:
as §2, §3

Data set [7] has as its system seven human cancer cell lines. The experiment in a line: Antiproliferative activity, MTT assay, all lines of Table 7. It is filed as cell-based. The procedure:
as §2, §3

Data set [8] relates to MES-SA DX (Taxol Resistant) human uterine sarcoma tumor cell line. The experiment in a line: Drug resistant cell line pair, cytotoxicity. It is filed as cell-based. The source says:
MES-SA (Taxol Sensitive) and MES-SA DX (Taxol Resistant). This cell line expresses elevated mdr-1 mRNA and P-glycoprotein (an extrusion pump mechanism). Pretreatment with cyclosporin-A (CsA) blocks P-glycoprotein and reinstates activity in the resistant cell line for those compounds for which the resistance is due to elevated P-glycoprotein.

The subject of data set [9] is HL-60 (Mitoxantrone-Sensitive) human acute promyelocytic leukemia cell line. Kind of data set: Drug resistant cell line pair, cytotoxicity. Type of data set: cell-based. To be noted: Homo sapiens; HL-60 Sensitive. The source says:
2) Human Acute Promyelocytic Leukemia Cell Line Pair: HL-60 (Mitoxantrone-Sensitive) and HL-60/MX-2 (Mitoxantrone-Resistant)
This cell line is considered to have atypical drug resistance properties with altered topoisomerase II catalytic activity without overexpression of P-glycoprotein.

Data set [10] relates to HL-60/MX-2 (Mitoxantrone-Resistant) human acute promyelocytic leukemia cell line. Kind of data set: Drug resistant cell line pair, cytotoxicity. It is filed as cell-based. The source says: HL-60 (Mitoxantrone-Sensitive) and HL-60/MX-2 (Mitoxantrone-Resistant) This cell line is considered to have atypical drug resistance properties with altered topoisomerase II catalytic activity without overexpression of P-glycoprotein.

For data set [11], the system named is Jurkat cells.
For data set [12], the system named is Jurkat cells. The experiment in a line: Cytotoxicity in Jurkat cells. To be noted: Homo sapiens, read-out: Cytotoxicity Potency IC50.

Structures are written as SMILES. In brackets after ≈: the same amount, converted by molar mass. Several values for one entry are separate records, joined by “and”; a condition that tells them apart may be missing. Identical values can stand only once. Like-named read-outs stand apart in the source and are kept apart here.

Regarding `C=CC(C)(C)c1[nH]cnc1/C=C1\NC(=O)[C@@H](Cc2ccccc2)NC1=O` [(+)-phenylahistin], the IC50 in data set [1] was 2.9 µg/mL (≈ 8.28 µM); in data set [2], 13.3 µg/mL (≈ 38 µM); in [3], 38 µM; in the data set with P388 cells [4] (Alamar Blue assay (Table 4), read-out: IC50 for P388 Proliferation), 10 µM; with P388 cells [4] (means (±SEM) of three experiments (Table 9), read-out: IC50 P388 proliferation) it was 10 µM; in data set [5] (microtubule protein 1.5 mg/mL (Table 9), read-out: IC50 Microtubule Protein polymerization) it was over 200 µM. In addition, the IC50 in data set [5] (microtubule protein 1.5 mg/ml (Table 4), read-out: IC50 for Microtubule Protein Polymerization) was over 200 µM; in the data set with A-431 (damal), 20 µM; with A549 (lung), 30 µM; in the data set with Hela (ovary), 10 µM; in the data set with K562 (leukemia) it was 10 µM; with MCF7 (breast) it was 11 µM. For the same compound, the IC50 was 130 µM in the data set on TE-671 (CNS) and 8.5 µM in the data set on WiDr (colon). Also, the “inhibition percentage at 200 μM, microtubule protein polymerization” value in [5] (200 μM) is 15%. Also, the microtubule assembly entry in data set [5] (concentrations up to 200 μM) is reported as “did not affect microtubule assembly”. Besides, in the data set with P388 cells [6], the “cell cycle inhibitory activity (G2/M)” value is reported as “no effect”. The “fold less activity than (−)-PLH” value in data set [7] is listed as 33 to 100 fold.

For `O=C1c2c(O)ccc(O)c2C(=O)c2c(NCCNCCO)ccc(NCCNCCO)c21` [Mitoxantrone, reference compound], the “reduced susceptibility of the MES-SA DX cell line” value in [8] turned out to be 20 fold. The IC50 in data set [9] came to 0.202 µM; in [10] (Homo sapiens, HL60/MX2, HL-60 Resistant), 4.87 µM; with Jurkat cells [12] it was 0.041 µM. In addition, the “Ratio to Sensitive” value in [10] (HL-60 Resistant versus Sensitive) is 24 and 24.1. Also, in the data set on Jurkat cells [11], the “Cytotoxicity Efficacy % Cell Death” value is recorded as 99%.
